Where a name gives a salt, the structure may show the parent alone. Read-outs that look alike come from different tables or passages of the source.

The values that follow come from patent US10508109B2 (priority 2015, dated 2019).

The target of assay [1] is T1, SUV39H2 (Homo sapiens (Human), UniProt Q9H5I1). The assay can be described thus: biochemical. It is filed as biochemical. The conditions noted are these: 3H-SAM 100 nM, H3 Histone Peptide 350 nM, room temperature 3 hours. On the procedure:
Assay buffer (4 μL) was added into all the wells, including test compound and control wells (except for Sinefungin control wells), using the Multidrop Combi. The plate was centrifuged at 1000 rpm for 1 min. […] SUV39H2 (8 μL, final conc: optimized for each lot of the enzyme based on specific activity) was added by using the Multidrop Combi. The assay plate was centrifuged at 1000 rpm for 1 min. Assay buffer was used as background control, and incubated at room temperature for 3 hours. The reaction was stopped with 20 μL of 2.5 mg/mL Streptavidin SPA beads (final conc. 50 μg/well) in buffer using the Multidrop Combi and centrifuged for 1 min. The plate was loaded into the Trilux-Microbeta counter and a delayed read of 10 hours was made. The radioactive signal was measured at 1 min/well. Sinefungin and the internal standard compound were used as tool compounds to determine assay performance.
• The following calculations were made using the obtained CPM raw data: Software used: XLFit from IDBS.
For each test plate the following results were calculated: • Average, Standard Deviation, and % CV of Background Controls • Average, Standard Deviation, and % CV of Positive Controls • Z′ value of the plate • IC50 values of standard and test compounds (in nM) • R^2 value of fitted concentration response curve • Hill slope coefficient of fitted concentration response curve • Signal to Noise Ratio

Assay [2] deals with A549. Description: Cell-based assay, anti-proliferative activity (Cell Counting Kit-8, 72 hours). The conditions noted are these: Homo sapiens. The method, boiled down: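 IC50 values come from growth read-outs taken after the cells' exposure to each candidate inhibitor. Cells had been plated in 96-well microtiter plates beforehand.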
(Tetrazolium dyes change colour on reduction, which living cells bring about.)

The target in assay [3] is T1, SUV39H2. The settings on record: read-out: IC50 (μM) Suv 39H2 assay.
Assay [4] deals with PC14. The assay can be described thus: Cell-based assay, anti-proliferative activity (Cell Counting Kit-8, 72 hours). The settings on record: Homo sapiens, read-out: IC50 (μM) PC14. The method, boiled down:
(§1)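 IC50 values reflect cell growth measured by Cell Counting Kit-8 following 72 hours of inhibitor exposure across a twofold dilution range up to 100 micro-M.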

For assay [5], the system named is HCT-116. The assay is described as above. The settings on record: Homo sapiens, read-out: IC50 (μM) HCT-116. The method, boiled down: as §1
For assay [6], the system named is HFL1. The description is as above. The conditions noted are these: Homo sapiens, read-out: IC50 (μM) HFL1. The method, boiled down:
as §1

In assay [7] the test system is CCD-18Co. Described as above. The conditions noted are these: Homo sapiens, read-out: IC50 (μM) CCD-18Co. The gist of the method: as §1
[8] abbreviates: A549 cells, 72 hours exposure, Cell Counting Kit-8, read-out: A549 IC50.
Where [9] appears, read: A549, 72 h, read-out: A549 IC50.
Where [10] appears, read: PC-14, PC14 cells, Cell Counting Kit-8, 72 hours.
The mark [11] stands for this setting: HCT-116 cells, Cell Counting Kit-8, 72 hours.
The mark [12] stands for this setting: HFL1 cells, Cell Counting Kit-8, 72 hours.
Where [13] appears, read: CCD-18Co cells, Cell Counting Kit-8, 72 hours.
Setting [14] is: A549 cells, Cell Counting Kit-8, 72 hours, read-out: IC50 (μM) A549.
[15] abbreviates: A549, 72 h, read-out: IC50 (μM) A549.

T1 sequence (Q9H5I1 whole entry): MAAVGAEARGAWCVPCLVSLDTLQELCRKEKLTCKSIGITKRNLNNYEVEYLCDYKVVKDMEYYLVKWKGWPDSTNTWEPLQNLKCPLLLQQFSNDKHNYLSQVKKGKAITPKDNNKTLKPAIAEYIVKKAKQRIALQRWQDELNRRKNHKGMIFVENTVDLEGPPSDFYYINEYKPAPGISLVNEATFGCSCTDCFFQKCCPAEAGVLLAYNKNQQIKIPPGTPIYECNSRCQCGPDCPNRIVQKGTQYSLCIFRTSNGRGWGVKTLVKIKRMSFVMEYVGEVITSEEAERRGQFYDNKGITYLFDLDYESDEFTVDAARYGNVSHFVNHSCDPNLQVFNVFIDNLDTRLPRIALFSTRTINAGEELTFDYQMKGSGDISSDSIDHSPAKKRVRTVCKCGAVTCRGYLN

Usually IC50 stands for the concentration that inhibits the measured activity by half. As for `COc1cc(OC)c(-c2cn3ccc(N[C@H]4C[C@H]5CC[C@@H](C4)N5CC4CCN(C(=O)OC(C)(C)C)CC4)cc3n2)cc1Cl` [Example 447, tert-butyl 4-(((1R,3r,5S)-3-((2-(5-chloro-2,4-dimethoxyphenyl)imidazo[1,2-a]pyridin-7-yl)amino)-8-azabicyclo[3.2.1]octan-8-yl)methyl)piperidine-1-carboxylate], the IC50 was determined as 85.2 nM in assay [1] and 0.44 µM in assay [2] (setting [8]).
For `COc1cc(OC)c(-c2cn3ccc(N4CCN(c5cc(N6CCNCC6)ncn5)CC4)cc3n2)cc1Cl` [Example 375, 2-(5-chloro-2,4-dimethoxyphenyl)-7-(4-(6-(piperazin-1-yl)pyrimidin-4-yl)piperazin-1-yl)imidazo[1,2-a]pyridine], in that order: 23.1 nM and 0.69 µM.
`COc1cc(OC)c(-c2cn3ccc(N4CCN(c5cc(N6CCCC6)nc(N)n5)CC4)cc3n2)cc1Cl` [Example 385, 4-(4-(2-(5-chloro-2,4-dimethoxyphenyl)imidazo[1,2-a]pyridin-7-yl)piperazin-1-yl)-6-(pyrrolidin-1-yl)pyrimidin-2-amine]: the IC50 came out at 38 nM in assay [1] and 0.66 µM in assay [2] (setting [8]).
With `COc1cc(OC)c(-c2cn3ccc(N4CCN(c5ccnc(N6CCNC(C)C6)n5)CC4)cc3n2)cc1Cl` (stereo not drawn) [Example 362, 2-(5-chloro-2,4-dimethoxyphenyl)-7-(4-(2-(3-methylpiperazin-1-yl)pyrimidin-4-yl)piperazin-1-yl)imidazo[1,2-a]pyridine], the IC50 worked out at 15.5 nM in assay [1] and 0.68 µM in assay [2] (setting [8]).
For `COc1cc(OC)c(-c2cn3ccc(N4CCN(c5ncc(N6CCN(C)CC6)cn5)CC4)cc3n2)cc1Cl` [Example 430, 2-(5-chloro-2,4-dimethoxyphenyl)-7-(4-(5-(4-methylpiperazin-1-yl)pyrimidin-2-yl)piperazin-1-yl)imidazo[1,2-a]pyridine], in that order: 13.7 nM and 0.95 µM.
`COc1cc(OC)c(-c2cn3ccc(N4CCN(c5nccc(N)c5F)CC4)cc3n2)cc1Cl` [Example 365, 2-(4-(2-(5-chloro-2,4-dimethoxyphenyl)imidazo[1,2-a]pyridin-7-yl)piperazin-1-yl)-3-fluoropyridin-4-amine formate]: the IC50 in assay [1] was found to be 29.7 nM; in assay [2] (setting [9]) it was 0.63 µM.
`COc1cc(OC)c(-c2cn3ccc(N4CCN(c5cc(N6CCCC6)ncn5)CC4)cc3n2)cc1Cl` [Example 355, 2-(5-chloro-2,4-dimethoxyphenyl)-7-(4-(6-(pyrrolidin-1-yl)pyrimidin-4-yl)piperazin-1-yl)imidazo[1,2-a]pyridine]: the IC50 in assay [1] came to 38.8 nM; in assay [2] (setting [8]) it was 0.67 µM.
`COc1cc(OC)c(-c2cn3ccc(N4CCN(c5nccc(N6CCN(C(=O)Cc7ccccc7)CC6)n5)CC4)cc3n2)cc1Cl` [Example 382, 1-(4-(2-(4-(2-(5-chloro-2,4-dimethoxyphenyl)imidazo[1,2-a]pyridin-7-yl)piperazin-1-yl)pyrimidin-4-yl)piperazin-1-yl)-2-phenylethanone dihydrochloride]: the IC50 stood at 31.7 nM in assay [1] and 0.68 µM in assay [2] (setting [9]).
Turning to `COc1cc(OC)c(-c2cn3ccc(N4CCN(c5ccnc(C#N)c5)CC4)cc3n2)cc1Cl` [Example 330, 4-(4-(2-(5-chloro-2,4-dimethoxyphenyl)imidazo[1,2-a]pyridin-7-yl)piperazin-1-yl)picolinonitrile], the IC50 in assay [1] was 98 nM; in assay [2] (setting [8]), 0.56 µM.
Turning to `COc1cc(OC)c(-c2cn3ccc(N[C@H]4CC[C@@H](N(C)Cc5ccccc5F)CC4)cc3n2)cc1Cl` [Example 347, bis(2,2,2-trifluoroacetate)], the IC50 in assay [1] was 24.8 nM.
Still for that read-out and setting: then `COc1cc(OC)c(-c2cn3ccc(N4CCN(c5cnc(N6CCC(NS(=O)(=O)C7CC7)CC6)nc5)CC4)cc3n2)cc1Cl` [Example 393, N-(1-(5-(4-(2-(5-chloro-2,4-dimethoxyphenyl)imidazo[1,2-a]pyridin-7-yl)piperazin-1-yl)pyrimidin-2-yl)piperidin-4-yl)cyclopropanesulfonamide], with 28.3 nM.
The compound `COc1cc(OC)c(-c2cn3ccc(N4CCN(Cc5cncc(C#N)c5)CC4)cc3n2)cc1Cl` [Example 339, 5-((4-(2-(5-chloro-2,4-dimethoxyphenyl)imidazo[1,2-a]pyridin-7-yl)piperazin-1-yl)methyl)nicotinonitrile] displayed an IC50 in assay [1] of 35.7 nM.
In assay [1], `COc1cc(OC)c(-c2cn3ccc(N4CCN(c5ccnc(NCCO)n5)CC4)cc3n2)cc1Cl` [Example 334, 2-((4-(4-(2-(5-chloro-2,4-dimethoxyphenyl)imidazo[1,2-a]pyridin-7-yl)piperazin-1-yl)pyrimidin-2-yl)amino)ethanol] registered an IC50 of 21.3 nM.
The same measure, in the same setting: with `COc1cc(OC)c(-c2cn3ccc(N[C@H]4CC[C@@H](N(C)Cc5ccc(F)cc5)CC4)cc3n2)cc1Cl` [Example 342] the figure was 38.8 nM.
For `COc1cc(OC)c(-c2cn3ccc(NC(=O)CNC(=O)OC(C)(C)C)cc3n2)cc1Cl` [Example 161, tert-butyl (2-((2-(5-chloro-2,4-dimethoxyphenyl)imidazo[1,2-a]pyridin-7-yl)-amino)-2-oxoethyl)carbamate], the IC50 turned out to be 0.0379 µM in assay [3] (enzyme assay); 8.7 µM in assay [4] (setting [10]); 7 µM in assay [5] (setting [11]); 8.4 µM in assay [6] (setting [12]); 7.8 µM in assay [7] (setting [13]); 8.8 µM in assay [2] (setting [14]).
In the case of `COc1cc(OC)c(-c2cn3ccc(N4CCC(N5CCCS5(=O)=O)CC4)cc3n2)cc1Cl` [Example 182, 2-{1-[2-(5-chloro-2,4-dimethoxyphenyl)imidazo[1,2-a]pyridin-7-yl]piperidin-4-yl}isothiazolidine 1,1-dioxide], the IC50 turned out to be 0.00697 µM in assay [3] (enzyme assay); 1.5 µM in assay [4] (setting [10]); 1.9 µM in assay [5] (setting [11]); 1.8 µM in assay [6] (setting [12]); 2.6 µM in assay [7] (setting [13]); 1.7 µM in assay [2] (setting [14]).
In assay [1], `COc1cc(OC)c(-c2cn3ccc(N[C@H]4C[C@H]5CC[C@@H](C4)N5CC4CCCCC4)cc3n2)cc1Cl` [Example 434, 2-(5-chloro-2,4-dimethoxyphenyl)-N-((1R,3r,5S)-8-(cyclohexylmethyl)-8-azabicyclo[3.2.1]octan-3-yl)imidazo[1,2-a]pyridin-7-amine] came in with an IC50 of 88.7 nM.
As to `CNc1ccn2cc(-c3cc(Cl)c(OC)cc3OC)nc2c1` [Example 6, 2-(5-chloro-2,4-dimethoxyphenyl)-N-methylimidazo[1,2-a]pyridin-7-amine hydrobromide], the IC50 in assay [3] (enzyme assay) was 0.00943 µM; in assay [4] (PC-14, 72 h), 1.4 µM; in assay [5] (HCT-116, 72 h) it was 1.7 µM; in assay [6] (HFL1, 72 h) it was 1 µM; in assay [7] (CCD-18Co, 72 h), 2.7 µM; in assay [2] (setting [15]) it was 2.2 µM.
For `COc1cc(OCCCN(C)C)c(-c2cn3ccc(N4CCNCC4)cc3n2)cc1Cl` [Example 139, 3-{4-chloro-5-methoxy-2-[7-(piperazin-1-yl)imidazo[1,2-a]pyridin-2-yl]phenoxy}-N,N-dimethylpropan-1-amine], the IC50 in assay [3] (enzyme assay) was determined as 0.025 µM; in assay [4] (setting [10]), 2.1 µM; in assay [5] (setting [11]), 2.4 µM; in assay [6] (setting [12]), 1.6 µM; in assay [7] (setting [13]), 2.5 µM; in assay [2] (setting [14]), 1.7 µM.
Take `COc1cc(OC)c(-c2cn3ccc(N4CCC(NC(C)=O)C4)nc3n2)cc1Br` (stereo not drawn) [Example 66]: the IC50 in assay [3] (enzyme assay) turned out to be 0.00747 µM; in assay [4] (setting [10]), 16 µM; in assay [5] (setting [11]) it was 18 µM; in assay [6] (setting [12]), 26 µM; in assay [7] (setting [13]), 27 µM; in assay [2] (setting [14]) it was 25 µM.
`COc1cc(C)c(Cl)cc1-c1cn2ccc(N3CCNCC3)cc2n1` [Example 228, 2-(5-chloro-2-methoxy-4-methylphenyl)-7-(piperazin-1-yl)imidazo[1,2-a]pyridine hydrochloride]: the IC50 in assay [3] turned out to be 0.033 µM; in assay [4] (PC-14, 72 h), 2.3 µM; in assay [5] (HCT-116, 72 h), 2 µM; in assay [6] (HFL1, 72 h), 1.6 µM; in assay [7] (CCD-18Co, 72 h) it was 2.6 µM; in assay [2] (setting [15]), 2.8 µM.
